The values below come from US20090169643A1, “Composition for Enhancing Immune Function” (priority 2006, published 2009).

In assay [1] the test system is human peripheral mononuclear cells. The assay is described as follows: Metabolic activity of human peripheral mononuclear cells (WST-1 formazan, 48 h culture), Test Example 3. The format is cell-based. As for the experimental part:
In the same manner as in Test Example 1, the synergic effect of nigerooligosaccharide and zinc on the metabolic activity of human peripheral mononuclear cells was assessed using nigerooligosaccharide and zinc. After 20 ml of blood collected from each healthy male adult was diluted 2-fold with calcium- and magnesium-free phosphate buffered saline (PBS), the diluted blood sample was overlaid onto 30 ml of a Ficoll-Paque PLUS (GE Healthcare Bio-Sciences) layer so gently as not to disturb the interface, followed by centrifugation at 400×g at 20° C. for 40 minutes. After the centrifugation, lymphocytes and monocytes present in the intermediate layer were carefully collected in a Pasteur pipette. The collected cell suspension was washed with 10-fold PBS twice. After the obtained mononuclear cells were counted with an automatic blood cell counter (Sysmex Corporation: type CDA-500), the suspension was adjusted to a concentration of 2×10^6 cells/ml in RPMI1640 culture medium supplemented with 10% fetal bovine serum, streptomycin and penicillin, and plated in a volume of 50 μl per well into a 96-well culture plate. […] The formazan concentration was determined from absorbance at a measurement wavelength of 415 nm (reference wavelength of 630 nm) using a microplate reader (Corona Electric Co., Ltd.: Type MTP-32).
The values in Table 3 represent absorbance at 415 nm as means±SD of triplicate wells. […]

Assay [2] deals with spleen cell suspension of immunocompetent cells. The experiment in a line: Metabolic activity of mouse immunocompetent cells during prolonged culture (WST-1 formazan, 144 h), Test Example 2. Particulars: for absorbance at 415 nm (formazan, index of metabolic activity): nigerooligosaccharide 0 ng/ml, Concanavalin A 0.4 μl/ml, 144 hours, mean of triplicate to hexylicate wells. The class given is cell-based, Balb/c mice. As for the experimental part: In this Test Example, the effect of the combined use of nigerooligosaccharide and zinc on the metabolic activity of immunocompetent cells during prolonged culture was assessed using nigerooligosaccharide and zinc in the same manner as Test Example 1. Spleens were aseptically harvested from ten-week-old female Balb/c mice, teased in RPMI1640 culture medium (GIBCO) supplemented with streptomycin and penicillin (SIGMA), and then passed through a #200 mesh screen to obtain spleen cell suspension of immunocompetent cells. After counting the cells in the spleen cell suspension with an automatic blood cell counter (Sysmex Corporation: type CDA-500), the suspension was adjusted to a concentration of 1×10^7 cells/ml in the above-mentioned RPMI1640 culture medium and plated in a volume of 50 μl per well into a 96-well culture plate. Concanavalin A (SIGMA), a cell-growth stimulating factor, was dissolved in the above-mentioned RPMI1640 culture medium, and 50 μl of the Concanavalin A solution was added to the cell suspension in each well to give a final concentration of 0.4 μl/ml. Additionally, zinc and nigerooligosaccharide were separately dissolved in the above-mentioned RPMI1640 culture medium. 50 μl of the zinc solution was added to each well to give a final concentration of 0, 1 or 2 ng/ml, and similarly, 50 μl of the nigerooligosaccharide solution was added to each well to give a final concentration of 0 or 1000 ng/ml. Thus-prepared immunocompetent cells were cultured in an incubator with 5% CO2 at 37° C. for 144 hours. […] The formazan concentration was determined from absorbance at a measurement wavelength of 415 nm (reference wavelength of 630 nm) using a microplate reader (Corona Electric Co., Ltd.: Type MTP-32).
The values in Table 2 represent absorbance at 415 nm as means of triplicate to hexylicate wells.

For assay [3] the test system is unchanged. The assay is described as follows: Metabolic activity of mouse immunocompetent cells (WST-1 formazan, 48 h culture), Test Example 1. The format is cell-based, Balb/c mice. The source says:
Zinc was used in the form of zinc sulfate dissolved in distilled water. Spleens were aseptically harvested from ten-week-old female Balb/c mice, teased in RPMI1640 culture medium (GIBCO) supplemented with streptomycin and penicillin (SIGMA), and then passed through a #200 mesh screen to obtain spleen cell suspension of immunocompetent cells. After counting the cells in the spleen cell suspension with an automatic blood cell counter (Sysmex Corporation: type CDA-500), the suspension was adjusted to a concentration of 1×10^7 cells/ml in the above-mentioned RPMI1640 culture medium and plated in a volume of 50 μl per well into a 96-well culture plate. Concanavalin A (SIGMA), a cell-growth stimulating factor, was dissolved in the above-mentioned RPMI1640 culture medium, and 50 μl of the Concanavalin A solution was added to the cell suspension in each well to give a final concentration of 2.0 μg/ml. Additionally, zinc and nigerooligosaccharide were separately dissolved in the above-mentioned RPMI1640 culture medium. […] The formazan concentration was determined from absorbance at a measurement wavelength of 415 nm (reference wavelength of 630 nm) using a microplate reader (Corona Electric Co., Ltd.: Type MTP-32). The values in Table 1 represent absorbance at 415 nm as means±SD of triplicate wells. […]

In the case of `O=S(=O)([O-])[O-].[Zn+2]` [zinc, zinc sulfate], the “metabolic activity of human immunocompetent cells (in words)” value in assay [1] (summary of Table 3, proportion 1:1000) is recorded as “hardly raised the metabolic activity”. Further, the “absorbance at 415 nm (formazan, index of metabolic activity)” value in assay [1] (zinc 10 ng/ml, nigerooligosaccharide 0 μg/ml, Concanavalin A 2.0 μg/ml, 48 hours, mean±SD of triplicate wells) turned out to be 0.348 ± 0.003; in assay [2] (zinc 1 ng/ml), 0.793; in assay [2] (zinc 2 ng/ml), 0.786; in assay [3] (zinc 1 ng/ml, nigerooligosaccharide 0 ng/ml, Concanavalin A 2.0 μg/ml, 48 hours, mean±SD of triplicate wells), 0.815 ± 0.013. Further, in assay [2] (summary of Table 2, 144 hours culture, proportion 1:1000 or 1:500), the “metabolic activity of mouse immunocompetent cells during prolonged culture (in words)” value is on record as “hardly raised the metabolic activity”. In assay [3] (summary of Table 1, 48 hours culture), the “metabolic activity of mouse immunocompetent cells (in words)” value was “hardly raised the metabolic activity”.
